In test [1] the test system is H1975 (non-small cell lung adenocarcinoma). Put plainly: MTT cancer cell growth inhibition. The note with it: Homo sapiens, NCI-H1975, 72 h, MTT, 72 hours incubation, H1975 cells; read-out: GI50 H1975. It is filed as cell-based. A digest of the protocol: (§1)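 Following overnight attachment of 1500 cells per well, each line was exposed to test drug (final 10^−5 to 10^−10 M) for 72 h in a humidified 37° C., 5% CO2 incubator. Four hours with MTT, DMSO dissolution of formazan, and a 570 nm reading yielded viability data used for GI50.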

Test [2] has as its system U937 (human leukemia cells). Put plainly: MTT cancer cell growth inhibition. In kind it is cell-based. The note with it: Homo sapiens, U-937, 72 h, MTT. The method in brief: as §1
Test [3] concerns DU145 (human prostate cancer cells). The experiment in a line: MTT cancer cell growth inhibition. It is filed as cell-based. The note with it: Homo sapiens, DU-145, 72 h, MTT. The method in brief: as §1
Test [4] concerns Bel-7402 (human hepatoma cells). The experiment in a line: MTT cancer cell growth inhibition. It is filed as cell-based. The note with it: Homo sapiens, Bel-7402, 72 h, MTT, 72 hours incubation, Bel-7402 cells; read-out: GI50 Bel-7402. The method in brief:
as §1

The subject of test [5] is HCC827 (human non-small cell lung cancer cells). The experiment in a line: MTT cancer cell growth inhibition. In kind it is cell-based. The settings on record: Homo sapiens, HCC827, 72 h, MTT, 72 hours incubation, HCC827 cells; read-out: GI50 HCC827. The method in brief: as §1
Test [6] concerns MCF-7 (human breast cancer cells). Put plainly: MTT cancer cell growth inhibition. In kind it is cell-based. The settings on record: Homo sapiens, MCF7, 72 h. The method in brief:
as §1

The subject of test [7] is PANC-1 (Pac-1, human pancreatic cancer cells). The experiment in a line: MTT cancer cell growth inhibition. The settings on record: MTT. It is filed as cell-based. A digest of the protocol:
as §1

For test [8], the system named is lncap (prostate cancer cells). Put plainly: MTT cancer cell growth inhibition. In kind it is cell-based. The note with it: Homo sapiens, LNCaP, 72 h, MTT. The method in brief: as §1
In test [9] the test system is K562 (human leukemia cells). The experiment in a line: MTT cancer cell growth inhibition. In kind it is cell-based. The note with it: Homo sapiens, K562, 72 h, MTT, 72 hours incubation, K562 cells; read-out: GI50 K562. The method in brief: as §1
Test [10] has as its system A549 (human lung cancer cells). Put plainly: MTT cancer cell growth inhibition. In kind it is cell-based. The note with it: Homo sapiens, A549, 72 h, MTT, 72 hours incubation; read-out: GI50 A54. A digest of the protocol: as §1
The next test has as its target T1, HDAC11 (Homo sapiens, UniProt Q96DB2).
T1 sequence (Q96DB2 1-347): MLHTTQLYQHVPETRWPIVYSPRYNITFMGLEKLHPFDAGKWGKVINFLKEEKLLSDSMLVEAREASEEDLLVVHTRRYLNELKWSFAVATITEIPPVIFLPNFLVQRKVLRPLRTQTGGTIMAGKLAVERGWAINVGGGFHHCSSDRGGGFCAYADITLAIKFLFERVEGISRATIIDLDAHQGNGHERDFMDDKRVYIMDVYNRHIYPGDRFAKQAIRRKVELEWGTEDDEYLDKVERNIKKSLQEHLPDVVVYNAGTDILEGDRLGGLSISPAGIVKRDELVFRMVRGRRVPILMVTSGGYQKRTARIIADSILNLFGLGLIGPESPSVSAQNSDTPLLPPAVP
The experiment in a line: HDAC biochemical activity measurement (fluorescent substrate deacetylation).

The next test has as its target HDAC2 (Homo sapiens, UniProt Q92769). The description is as above. The note with it: 37° C. 30 minutes.
In test [11] the test system is MOLT-4 (human acute lymphoblastic leukemia cells). Put plainly: MTT cancer cell growth inhibition. In kind it is cell-based. The note with it: Homo sapiens, MOLT-4, 72 h, MTT, 72 hours incubation; read-out: GI50 Mol. A digest of the protocol:
as §1

Where [12] appears, read: 72 hours incubation, read-out: GI50 MCF.
Where [13] appears, read: Homo sapiens, PANC-1, 72 h, 72 hours incubation, read-out: GI50 PAN.
Where [14] appears, read: read-out: IC50 HDAC11, HDAC11, 37° C. 30 minutes.
[15] abbreviates: 72 hours incubation, read-out: GI50 U93.
[16] abbreviates: 72 hours incubation, read-out: GI50 Du1.
Where [17] appears, read: 72 hours incubation, read-out: GI50 lnca.

The record followed here is US10065990B2, “Cyclic peptide compound, and preparation method, pharmaceutical composition and use thereof” (HANGZHOU GUANYU BIO-MEDICAL CO., LTD, priority 2013, dated 2018).

Like-named read-outs stand apart in the source and are kept apart here.

Sequence of HDAC2 (Q92769 whole entry, species assumed): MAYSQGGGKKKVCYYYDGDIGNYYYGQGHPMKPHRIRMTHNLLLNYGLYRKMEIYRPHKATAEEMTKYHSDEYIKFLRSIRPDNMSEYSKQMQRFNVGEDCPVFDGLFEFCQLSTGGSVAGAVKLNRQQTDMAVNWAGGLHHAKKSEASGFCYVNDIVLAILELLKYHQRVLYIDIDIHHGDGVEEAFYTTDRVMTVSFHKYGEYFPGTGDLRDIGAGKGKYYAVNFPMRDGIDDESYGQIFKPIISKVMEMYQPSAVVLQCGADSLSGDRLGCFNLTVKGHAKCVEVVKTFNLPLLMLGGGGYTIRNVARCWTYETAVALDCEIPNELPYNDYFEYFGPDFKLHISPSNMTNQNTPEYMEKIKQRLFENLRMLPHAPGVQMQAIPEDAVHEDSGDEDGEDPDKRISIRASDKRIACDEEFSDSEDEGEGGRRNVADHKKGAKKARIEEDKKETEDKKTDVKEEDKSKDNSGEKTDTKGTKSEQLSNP

`C/C=C1\NC(=O)c2cccc(n2)CNC(=O)C[C@@H](/C=C/CCSC(=O)CCCCCCC)OC(=O)[C@H](C(C)C)NC1=O` [Compound 1]: the GI50 amounted to 0.122 µM in test [1]; 0.005 µM in [2] (72 hours, present invention, read-out: GI50 U937, a); 0.004 µM in [3] (72 hours, present invention, read-out: GI50 Du145, a); 0.029 µM in test [4]; 0.179 µM in [5]; 0.03 µM in test [6] (setting [12]). Further, the GI50 in test [6] (72 hours, present invention, read-out: GI50 MCF7, a) was determined as 0.03 µM; in [7] (setting [13]), 0.02 µM; in [7] (72 hours, present invention, read-out: GI50 PANC-1, a) it was 0.32 µM; in test [8] (72 hours, present invention, read-out: GI50 lncap, a), 0.009 µM; in test [9], 0.078 µM; in test [10], 0.01 µM. For the same molecule, the IC50 was found to be 0.38 µM at HDAC11 (setting [14]) and 0.022 µM on HDAC2.
As for `C/C=C1\NC(=O)c2cccc(n2)CNC(=O)C[C@@H](/C=C/CCSC(C)=O)OC(=O)[C@H](C)NC1=O` [Compound 12], the GI50 in test [1] came to 0.041 µM; in test [4] it was 0.072 µM; in test [5], 0.037 µM; in [6] (setting [12]) it was 0.06 µM; in test [7] (setting [13]), 0.08 µM; in test [9], 0.024 µM. For the same molecule, the GI50 in test [10] turned out to be 0.07 µM. In addition, the half-maximal inhibitory concentration (IC50) worked out at 0.091 µM on HDAC11 (setting [14]) and 0.054 µM against HDAC2.
Take `C/C=C1\NC(=O)c2cccc(n2)CNC(=O)C[C@@H](/C=C/CCSC(=O)CC)OC(=O)[C@H](C(C)C)NC1=O` [Compound 6]: the GI50 in test [1] came out at 0.013 µM; in [4], 0.086 µM; in test [5] it was 0.065 µM; in test [6] (setting [12]) it was 0.06 µM; in [7] (setting [13]), 0.06 µM; in test [9], 0.033 µM. In addition, the concentration for 50% growth inhibition (GI50) in [10] is 0.06 µM. Also, the 50% inhibitory concentration (IC50) at HDAC11 (setting [14]) worked out at 0.135 µM; on HDAC2, 0.059 µM.
Turning to `C/C=C1\NC(=O)c2cccc(n2)CCNC(=O)C[C@@H](/C=C/CCS)OC(=O)[C@H](C(C)C)NC1=O` [Compound 146], the concentration for 50% growth inhibition (GI50) in test [1] was determined as 0.073 µM; in [2] (setting [15]), 0.03 µM; in [3] (setting [16]) it was 0.05 µM; in test [4], 0.035 µM; in test [5] it was 0.045 µM; in test [6] (setting [12]), 0.05 µM. Besides, the GI50 in test [11] came out at 0.08 µM; in test [8] (setting [17]), 0.04 µM; in test [9], 0.043 µM; in test [10] it was 0.03 µM. Also, the results for the IC50 at HDAC11 and on HDAC2 were 0.097 µM and 0.034 µM, respectively.
For `C/C=C1\NC(=O)c2cc(F)cc(n2)CNC(=O)C[C@@H](/C=C/CCSC(=O)CCC)OC(=O)[C@H](C(C)C)NC1=O` [Compound 43], the GI50 in [1] amounted to 0.062 µM; in [2] (setting [15]), 0.06 µM; in test [3] (setting [16]) it was 0.05 µM; in [4], 0.073 µM; in test [6] (setting [12]) it was 0.05 µM; in [11] it was 0.03 µM. Moreover, the concentration for 50% growth inhibition (GI50) in test [8] (setting [17]) was 0.03 µM; in [9], 0.052 µM; in [10], 0.05 µM. Besides, the IC50 is 0.094 µM at HDAC11 (setting [14]) and 0.051 µM on HDAC2.
`C/C=C1\NC(=O)c2cccc(n2)CNC(=O)C[C@@H](/C=C/CCSC(=O)CCCC)OC(=O)[C@H](C(C)C)NC1=O` [Compound 4]: the 50% growth inhibitory concentration (GI50) in [1] is 0.031 µM; in [4] it was 0.092 µM; in test [5], 0.022 µM; in test [6] (setting [12]) it was 0.04 µM; in test [7] (setting [13]) it was 0.06 µM; in test [9], 0.061 µM. Besides, in test [10], the GI50 amounted to 0.05 µM. The IC50 on HDAC11 (setting [14]) was 0.201 µM; on HDAC2 it was 0.251 µM.
On to `C/C=C1\NC(=O)c2cccc(n2)CNC(=O)C[C@@H](/C=C/CCSC(C)=O)OC(=O)[C@H](CC)NC1=O` [Compound 10], for which the GI50 was found to be 0.024 µM in [1]; 0.095 µM in [4]; 0.026 µM in test [5]; 0.06 µM in test [6] (setting [12]); 0.08 µM in test [7] (setting [13]); 0.073 µM in [9]. Further, the GI50 in test [10] turned out to be 0.06 µM. Moreover, the IC50 was 0.103 µM on HDAC11 and 0.067 µM on HDAC2.
As for `C/C=C1\NC(=O)c2nccc(n2)CNC(=O)C[C@@H](/C=C/CCSC(C)=O)OC(=O)[C@H](C)NC1=O` [Example 24], the GI50 in test [1] stood at 0.037 µM; in [3] (setting [16]) it was 0.02 µM; in test [4] it was 0.095 µM; in [5] it was 0.031 µM; in [6] (setting [12]), 0.05 µM; in test [11], 0.49 µM. Besides, the GI50 in test [7] (setting [13]) was determined as 0.22 µM; in [8] (setting [17]) it was 0.03 µM; in test [9], 0.037 µM; in [10], 0.1 µM. Moreover, the IC50 on HDAC11 was 0.097 µM; against HDAC2 it was 0.083 µM.
Regarding `C/C=C1\NC(=O)c2cc(F)cc(n2)CNC(=O)C[C@@H](/C=C/CCSC(=O)CCCCCCC)OC(=O)[C@H](Cc2ccccc2)NC1=O` [Compound 70], the GI50 worked out at 0.062 µM in test [1]; 0.06 µM in test [2] (setting [15]); 0.05 µM in test [3] (setting [16]); 0.03 µM in test [6] (setting [12]); 0.03 µM in test [11]; 0.03 µM in [8] (setting [17]). In addition, the figures for the GI50 in [9] and in test [10] were 0.052 µM and 0.04 µM, respectively. Moreover, the half-inhibitory concentration (IC50) on HDAC11 (setting [14]) is 0.097 µM; against HDAC2, 0.043 µM.
`C/C=C1\NC(=O)c2cccc(n2)CNC(=O)C[C@@H](/C=C/CCSC(=O)CCC)OC(=O)[C@H](C(C)C)NC1=O` [Compound 5]: the GI50 in [1] was 0.023 µM; in test [4] it was 0.093 µM; in test [5] it was 0.055 µM; in [6] (setting [12]) it was 0.04 µM; in [7] (setting [13]) it was 0.06 µM; in [9], 0.032 µM. In addition, the GI50 in [10] came out at 0.05 µM. Further, the IC50 came to 0.111 µM at HDAC11 (setting [14]) and 0.053 µM against HDAC2.
In the case of `C/C=C1\NC(=O)c2cccc(n2)CNC(=O)C[C@@H](/C=C/CCSC=O)OC(=O)[C@H](C(C)C)NC1=O` [Compound 8], the concentration for 50% growth inhibition (GI50) in test [1] amounted to 0.038 µM; in [4] it was 0.094 µM; in test [5] it was 0.041 µM; in test [6] (setting [12]), 0.08 µM; in test [7] (setting [13]), 0.08 µM; in test [9], 0.053 µM. For the same molecule, in test [10], the GI50 came to 0.08 µM. The concentration for half-maximal inhibition (IC50) turned out to be 0.097 µM on HDAC11 and 0.162 µM against HDAC2.
For the molecule `C=C1NC(=O)c2cccc(n2)CNC(=O)C[C@@H](/C=C/CCSC(C)=O)OC(=O)[C@H](C(C)C)NC1=O` [Compound 19], the GI50 in [1] turned out to be 0.024 µM; in test [4], 0.097 µM; in test [5], 0.048 µM; in test [6] (setting [12]) it was 0.08 µM; in test [11], 1.9 µM; in [7] (setting [13]), 0.6 µM. Besides, the results for the GI50 in test [8] (setting [17]), in [9] and in test [10] were 0.58 µM, 0.026 µM and 0.09 µM, respectively. Further, the IC50 was 0.103 µM at HDAC11 (setting [14]) and 0.063 µM against HDAC2.
